Data as given in PMC6680932, “Structure–Antioxidant–Antiproliferative Activity Relationships of Natural C7 and C7–C8 Hydroxylated Flavones and Flavanones” (Antioxidants, 2019).

Experiment: FRAP (ferric ion reducing antioxidant power) assay
Conditions: 10 min, 593 nm; mean ± SD
Protocol: The antioxidant capacity of flavonoids was measured in three separate tests: ABTS, DPPH, and ferric ion reducing antioxidant power (FRAP) assays (ABTS, DPPH, and FRAP reagents from Sigma-Aldrich). All tested compounds were dissolved in DMSO. All determinations were performed in triplicate. Standard curves were prepared for all assays using different concentrations of Trolox (6-hydroxy-2,5,7,8-tetramethylchroman-2-carboxylic acid) (Sigma-Aldrich). Trolox is a water-soluble analogue of vitamin E with high antioxidant activity, commonly used as a control and a reference in studies of antioxidant activity. The results were expressed as the equivalent of μmol Trolox per μmol of the test compound. The absorbance was measured using a UV-2401 PC spectrophotometer (Shimadzu, Kyoto, Japan). Concentrations of the tested samples were in the range from 50 µg/mL to 10 mg/mL.
The FRAP method is based on measuring the ability of antioxidants to reduce ferric 2,4,6-tris(2-pyridyl)-1,3,5-triazine [Fe(III)-TPTZ] in the blue colored ferrous form, which absorbs light at λ = 593 nm. The Fe(III)-TPTZ reagent was prepared as a mixture of acetate buffer (pH 3.6), 10 mM TPTZ in 40 mM HCl, and 20 mM FeCl3 in the ratio of 10:1:1 (v/v/v). The FRAP reagent was freshly prepared before each experiment. The samples (0.1 mL) were mixed in polystyrene cuvettes with 3 mL of ferric complex and 0.9 mL of distilled water. The absorbance was measured after 10 min at λ = 593 nm.

O=c1cc(-c2ccc(O)cc2)oc2c(O)c(O)cc(O)c12 [Compound 10, 8-hydroxyapigenin]
TEAC FRAP: 7.824 ± 0.657 µmol trolox per µmol of tested
